Results reported in patent US11312705B2, “Heteroaryl[4,3-C]pyrimidine-5-amine derivative, preparation method therefor, and medical uses thereof” (Jiangsu Hengrui Medicine Co., Ltd., priority 2017, dated 2022).

Tests used:
Type in all cases: cell-based
[1] = biological target: adenosine A2b receptor (A2bR) (Homo sapiens (Human), UniProt P29275); assay: Inhibition of adenosine A2b receptor cAMP signaling pathway (HTRF cAMP, CHO-K1/A2bR cells); conditions: Table 3; for IC50: CHO-K1/A2bR cells, ethyl carbazole 1 μM, cAMP HTRF; for IC50 ratio (A2bR/A2aR): selectivity A2bR over A2aR
adenosine A2b receptor (A2bR), sequence (P29275 whole entry): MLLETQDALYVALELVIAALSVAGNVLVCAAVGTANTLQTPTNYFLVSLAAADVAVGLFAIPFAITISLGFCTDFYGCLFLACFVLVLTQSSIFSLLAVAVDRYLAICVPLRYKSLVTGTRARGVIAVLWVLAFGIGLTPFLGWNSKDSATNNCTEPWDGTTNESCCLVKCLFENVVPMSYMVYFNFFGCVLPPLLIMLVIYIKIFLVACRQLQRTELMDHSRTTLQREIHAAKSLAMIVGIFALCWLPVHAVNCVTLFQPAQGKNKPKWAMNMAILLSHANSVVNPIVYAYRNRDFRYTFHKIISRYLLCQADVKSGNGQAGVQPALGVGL
Excerpt: (§1) Test Example 1. Determination of the inhibition activity of the compounds of the present invention on the adenosine A2a receptor (A2aR) cAMP signaling pathway, the adenosine A2b receptor (A2bR) cAMP signaling pathway, the adenosine A1 receptor (A1R) cAMP signaling pathway and the adenosine A3 receptor (A3R) cAMP signaling pathway.
(§2) The inhibition activity of the compounds of the present invention on the adenosine A2a receptor cAMP signaling pathway, the adenosine A2b receptor cAMP signaling pathway, the adenosine A1 receptor cAMP signaling pathway and the adenosine A3 receptor cAMP signaling pathway was determined by the following method. The experimental method is briefly described as follows:
2.4 Adenosine A2b receptor (A2bR)
CHO-K1/A2bR cells were cultured in DMEM/F12 medium containing 10% fetal bovine serum and 1 mg/ml G418. The cells were digested with the cell separation buffer during the experiment. The cells were resuspended in the balanced salt buffer containing 20 mM HEPES and 0.1% bovine serum albumin and counted, and the cell density was adjusted to 10^6 cells/ml. In the 384-well plate, each well was added with 5 μl of cell suspension, and 2.5 μl of test compound (4× concentration) formulated with the balanced salt buffer containing 20 mM HEPES, 0.1% bovine serum albumin, 54 μM rolipram and 2.7 U/ml adenosine deaminase, and the plate was incubated at room temperature for 30 minutes. Each well was then added with 2.5 μl of […] (4× concentration) (Torcis, 1691/10) formulated with the balanced salt buffer containing 20 mM HEPES, 0.1% bovine serum albumin, 54 μM rolipram and 2.7 U/ml adenosine deaminase, and the plate was incubated at room temperature for 30 minutes. The final concentrations of the compounds were: 100000, 10000, 1000, 100, 10, 1, 0.1 and 0 nM. The final concentration of […] was 1 μM. Intracellular cAMP concentration was detected with the cAMP dynamic 2 kit. cAMP-d2 and Anti-cAMP-Eu-Cryptate were diluted respectively with the cAMP lysis buffer at a ratio of 1:4. Each well was added with 5 μl of diluted cAMP-d2, followed by addition of 5 μl of diluted Anti-cAMP-Eu-Cryptate, and the plate was incubated at room temperature in the dark for 1 hour. The HTRF signal values were read by the PHERAstar multi-function microplate reader.

[2] = biological target: adenosine A2a receptor (A2aR) (Homo sapiens (Human), UniProt P29274); assay: Inhibition of adenosine A2a receptor cAMP signaling pathway (HTRF cAMP, CHO-K1/A2aR cells)
adenosine A2a receptor (A2aR), sequence (P29274 whole entry): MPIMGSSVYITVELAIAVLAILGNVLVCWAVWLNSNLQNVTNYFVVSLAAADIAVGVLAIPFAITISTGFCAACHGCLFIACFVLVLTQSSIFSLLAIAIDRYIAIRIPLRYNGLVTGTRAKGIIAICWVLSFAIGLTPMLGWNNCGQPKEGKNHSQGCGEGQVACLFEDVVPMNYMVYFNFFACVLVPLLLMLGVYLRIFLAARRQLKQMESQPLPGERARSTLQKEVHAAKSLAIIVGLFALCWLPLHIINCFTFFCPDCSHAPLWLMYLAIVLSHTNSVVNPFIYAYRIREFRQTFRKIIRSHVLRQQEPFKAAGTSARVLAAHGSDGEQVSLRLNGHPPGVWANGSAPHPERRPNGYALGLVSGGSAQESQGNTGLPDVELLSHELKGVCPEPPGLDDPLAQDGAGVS
Excerpt: as §1, §2
2.1 Adenosine A2a Receptor
CHO-K1/A2aR cells were cultured in DMEM/F12 medium containing 10% fetal bovine serum and 800 μg/ml bleomycin. The cells were digested with the cell separation buffer during the experiment. The cells were resuspended in the balanced salt buffer containing 20 mM HEPES and 0.1% bovine serum albumin and counted, and the cell density was adjusted to 10^6 cells/ml. In the 384-well plate, each well was added with 5 μl of cell suspension, and 2.5 μl of test compound (4× concentration) formulated with the balanced salt buffer containing 20 mM HEPES, 0.1% bovine serum albumin, 54 μM rolipram and 2.7 U/ml adenosine deaminase, and the plate was incubated at room temperature for 30 minutes. Each well was then added with 2.5 μl of […] (4× concentration) formulated with the balanced salt buffer containing 20 mM HEPES, 0.1% bovine serum albumin, 54 μM rolipram and 2.7 U/ml adenosine deaminase, and the plate was incubated at room temperature for 30 minutes. The final concentrations of the compounds were: 10000, 2000, 400, 80, 16, 3.2, 0.64, 0.128, 0.0256, 0.00512, and 0.001024 nM. The final concentration of […] was 20 nM. Intracellular cAMP concentration was detected with the cAMP dynamic 2 kit. cAMP-d2 and Anti-cAMP-Eu-Cryptate were diluted respectively with the cAMP lysis buffer at a ratio of 1:4. Each well was added with 5 μl of diluted cAMP-d2, followed by addition of 5 μl of diluted Anti-cAMP-Eu-Cryptate, and the plate was incubated at room temperature in the dark for 1 hour. The HTRF signal values were read by the PHERAstar multi-function microplate reader.

[3] = biological target: adenosine A1 receptor (A1R) (Homo sapiens (Human), UniProt P30542); assay: Inhibition of adenosine A1 receptor cAMP signaling pathway (HTRF cAMP, CHO-K1/A1R cells); conditions: Table 2; for IC50: CHO-K1/A1R cells, forskolin 10 μM, CPA 10 nM, cAMP HTRF; for IC50 ratio (A1R/A2aR): selectivity A1R over A2aR
adenosine A1 receptor (A1R), sequence (P30542 whole entry): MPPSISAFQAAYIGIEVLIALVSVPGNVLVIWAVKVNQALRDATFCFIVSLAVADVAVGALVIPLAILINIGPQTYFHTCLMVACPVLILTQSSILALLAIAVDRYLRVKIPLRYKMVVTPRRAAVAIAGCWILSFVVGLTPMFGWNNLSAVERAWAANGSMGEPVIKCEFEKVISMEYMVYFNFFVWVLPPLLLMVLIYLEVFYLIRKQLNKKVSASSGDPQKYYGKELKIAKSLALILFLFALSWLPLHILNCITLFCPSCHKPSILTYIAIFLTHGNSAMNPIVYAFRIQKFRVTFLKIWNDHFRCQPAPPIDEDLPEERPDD
Excerpt: as §1, §2
2.2 Adenosine A1 receptor
(§3) CHO-K1/A1R cells were cultured in DMEM/F12 medium containing 10% fetal bovine serum and 1 mg/ml G418. The cells were digested with the cell separation buffer during the experiment. The cells were then resuspended in the balanced salt buffer containing 20 mM HEPES and 0.1% bovine serum albumin and counted, and the cell density was adjusted to 5×10^5 cells/ml. In the 384-well plate, each well was added with 12.5 μl of cell suspension, and 6.25 μl of test compound (4× concentration) formulated with the balanced salt buffer containing 20 mM HEPES, 0.1% bovine serum albumin, 54 μM rolipram and 2.7 U/ml adenosine deaminase, and the plate was incubated at room temperature for 30 minutes. Each well was then added with 6.25 μl of forskolin and N6-cyclopentyladenosine (4× concentration) formulated with the balanced salt buffer containing 20 mM HEPES, 0.1% bovine serum albumin, 54 μM rolipram and 2.7 U/ml adenosine deaminase, and the plate was incubated at room temperature for 30 minutes. The final concentrations of the compounds were: 100000, 10000, 1000, 100, 10, 1, 0.1 and 0 nM. The final concentration of forskolin was 10 μM. The final concentration of CPA was 10 nM. Intracellular cAMP concentration was detected with the cAMP dynamic 2 kit. cAMP-d2 and Anti-cAMP-Eu-Cryptate were diluted respectively with the cAMP lysis buffer at a ratio of 1:4. Each well was added with 12.5 μl of diluted cAMP-d2, followed by addition of 12.5 μl of diluted Anti-cAMP-Eu-Cryptate, and the plate was incubated at room temperature in the dark for 1 hour. The HTRF signal values were read by the PHERAstar multi-function microplate reader.

[4] = biological target: adenosine A3 receptor (A3R) (Homo sapiens (Human), UniProt P0DMS8); assay: Inhibition of adenosine A3 receptor cAMP signaling pathway (HTRF cAMP, CHO-K1/A3R cells); conditions: Table 2; for IC50: CHO-K1/A3R cells, forskolin 10 μM, 2Cl-IB-MECA 5 nM, cAMP HTRF
adenosine A3 receptor (A3R), sequence (P0DMS8 whole entry): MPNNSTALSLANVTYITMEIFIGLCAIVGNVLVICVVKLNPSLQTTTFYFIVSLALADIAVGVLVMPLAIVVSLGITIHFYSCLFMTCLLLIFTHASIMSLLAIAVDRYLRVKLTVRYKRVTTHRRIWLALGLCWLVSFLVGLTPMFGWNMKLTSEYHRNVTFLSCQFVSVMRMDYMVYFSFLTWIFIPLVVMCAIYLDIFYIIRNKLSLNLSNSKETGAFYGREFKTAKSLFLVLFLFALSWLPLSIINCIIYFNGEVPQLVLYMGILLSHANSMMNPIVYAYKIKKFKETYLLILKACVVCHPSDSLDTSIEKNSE
Excerpt: as §1, §2
2.3 Adenosine A3 receptor
as §3, with “CHO-K1/A3R cells were” for “CHO-K1/A1R cells were”, “serum and 10 μg/ml puromycin. The cells” for “serum and 1 mg/ml G418. The cells”, “cells were resuspended in” for “cells were then resuspended in”, “forskolin and 2Cl-IB-MECA (4× concentration)” for “forskolin and N6-cyclopentyladenosine (4× concentration)”, “concentration of 2Cl-IB-MECA was 5” for “concentration of CPA was 10”, “2Cl-IB-MECA was 5 nM. Intracellular” for “CPA was 10 nM. Intracellular”

| SMILES | IC50 [1] [nM] | IC50 ratio (A2bR/A2aR) [1] | IC50 ([2]; Table 1, ethyl carbazole 20 nM) [nM] | IC50 ([2]; Table 2, ethyl carbazole 20 nM) [nM] | IC50 ([2]; Table 3, ethyl carbazole 20 nM) [nM] | IC50 [3] [nM] | IC50 ratio (A1R/A2aR) [3] | IC50 ratio (A3R/A2aR) [4] | IC50 [4] [nM] |
| --- | --- | --- | --- | --- | --- | --- | --- | --- | --- |
| Cc1cc(-c2c(-c3ccc(F)cc3)nc(N)n3cnnc23)cc(CF)n1 [Example 55, 8-(2-(Fluoromethyl)-6-methylpyridin-4-yl)-7-(4-fluorophenyl)-[1,2,4]triazolo[4,3-c]pyrimidin-5-amine] | 78.2 | 75 | 1.04 | 1.04 | 1.04 | 222 | 214 | >10^3 | > 10000 |
| Cc1cc(-c2c(-c3ccccc3F)nc(N)n3cnnc23)cc(C(F)F)n1 [Example 56, 8-(2-(Difluoromethyl)-6-methylpyridin-4-yl)-7-(2-fluorophenyl)-[1,2,4]triazolo[4,3-c]pyrimidin-5-amine] | 112 | 67 | 1.68 | 1.68 | 1.68 | 248 | 148 | >10^3 | > 10000 |
| Cc1cc(-c2c(-c3ccc(Cl)cc3F)nc(N)n3cnnc23)cc(C(F)F)n1 [Example 59, 7-(4-Chloro-2-fluorophenyl)-8-(2-(difluoromethyl)-6-methylpyridin-4-yl)-[1,2,4]triazolo[4,3-c]pyrimidin-5-amine] | 884 | 290 | 3.05 | 3.05 | 3.05 | 1010 | 330 | >10^3 | > 10000 |

Further compounds by falling IC50 [1], results first:

| IC50 [1] [nM] | IC50 ratio (A2bR/A2aR) [1] | IC50 ([2]; Table 1, ethyl carbazole 20 nM) [nM] | IC50 ([2]; Table 2, ethyl carbazole 20 nM) [nM] | IC50 ([2]; Table 3, ethyl carbazole 20 nM) [nM] | IC50 [3] [nM] | IC50 ratio (A1R/A2aR) [3] | IC50 ratio (A3R/A2aR) [4] | IC50 [4] [nM] | SMILES |
| --- | --- | --- | --- | --- | --- | --- | --- | --- | --- |
| 209 | 81 | 2.59 | 2.59 | 2.59 | 302 | 117 | >10^3 | > 10000 | Cc1cc(-c2c(-c3ccccc3F)nc(N)n3cnnc23)cc(CF)n1 [Example 57, 8-(2-(Fluoromethyl)-6-methylpyridin-4-yl)-7-(2-fluorophenyl)-[1,2,4]triazolo[4,3-c]pyrimidin-5-amine] |
| 85.4 | 89 | 0.96 | 0.96 | 0.96 | 173 | 180 | >10^4 | > 10000 | Cc1cc(-c2c(-c3ccccc3F)nc(N)n3cnnc23)cc(C)n1 [Example 19, 8-(2,6-Dimethylpyridin-4-yl)-7-(2-fluorophenyl)-[1,2,4]triazolo[4,3-c]pyrimidin-5-amine] |
